Tests used:
Format in all cases: biochemical
CDK7 = CDK7 (Homo sapiens, UniProt P50613); assay: experiment of inhibiting kinase activity (Caliper mobility shift assay), CDK7; conditions: read-out: inhibition rate CDK7
Method: (§1) The inhibition rates of tested compounds on JAK1, JAK2, JAK3, TYK2, CDK7, CDK9, EGFR (T790M) and LRRK2 kinases were measured. The test concentrations of the compounds were 10 nM and 100 nM, and the detection was performed by replicate wells. Alternatively, compounds were 3-fold serial diluted from 10 µM for 10 concentrations in replicate wells.
(§2) The inhibitory effects of the compounds on JAK1, JAK2, JAK3, CDK7 and CDK9 kinases were detected by the method of Caliper mobility shift assay. 250 nL of the compound at 100-fold final concentration was transferred to a destination plate 384-well-plate by using a liquid handler Echo 550. A kinase solution at 2.5-fold final concentration was prepared with 1×kinase buffer. 10 µL of the kinase solution with 2.5-fold final concentration was added to compound wells and positive control wells; and 10 µL of 1×kinase buffer was added to negative control wells. The mixture was centrifuged at 1000 rpm for 30 seconds and then incubated at room temperature for 10 minutes. A mixed solution of ATP and kinase substrate at 5/3-fold final concentration was prepared with 1×kinase buffer, and 15 µL of the mixed solution of ATP and substrate at 5/3-fold final concentration was added to start the reaction. The 384-well plate was centrifuged at 1000 rpm for 30 seconds, shaked and mixed evenly, then incubated at room temperature for a corresponding time. 30 µL of stop solution was added to stop the kinase reaction, the mixture was centrifuged at 1000 rpm for 30 seconds, and shaked and mixed evenly. The conversion rate was read by Caliper EZ Reader. The conversion inhibition rate%=(average positive control conversion rate%-sample conversion rate%)/(average positive control conversion rate%-average negative control conversion rate%). Where negative control wells represent the conversion readings of the background well of kinase buffer; and positive control wells represent the conversion readings of wells without compound inhibition. With the log value of concentration as the x axis and the percentage inhibition rate as the y axis, the dose-response curve was fitted by the log (inhibitor) vs. response-variable slope of the analyzing softwar GraphPad Prism 5, and the IC50 values of each compound on enzyme activity were obtained. Calculation formula is as follows: y=Bottom+(Top-Bottom)/(1+10^((LogIC50-x)×hillslope)), where x is logarithm of inhibitor concentration; and Y is % inhibition rate.

JAK1 = JAK1 (Homo sapiens, UniProt P23458); assay: experiment of inhibiting kinase activity (Caliper mobility shift assay), JAK1; conditions: for inhibition at 0.01 µM: at 10 nM; for inhibition at 0.01 µM / inhibition at 0.1 µM: read-out: inhibition rate JAK1; for inhibition at 0.1 µM: at 100 nM
Chain of JAK1 (P23458 whole entry): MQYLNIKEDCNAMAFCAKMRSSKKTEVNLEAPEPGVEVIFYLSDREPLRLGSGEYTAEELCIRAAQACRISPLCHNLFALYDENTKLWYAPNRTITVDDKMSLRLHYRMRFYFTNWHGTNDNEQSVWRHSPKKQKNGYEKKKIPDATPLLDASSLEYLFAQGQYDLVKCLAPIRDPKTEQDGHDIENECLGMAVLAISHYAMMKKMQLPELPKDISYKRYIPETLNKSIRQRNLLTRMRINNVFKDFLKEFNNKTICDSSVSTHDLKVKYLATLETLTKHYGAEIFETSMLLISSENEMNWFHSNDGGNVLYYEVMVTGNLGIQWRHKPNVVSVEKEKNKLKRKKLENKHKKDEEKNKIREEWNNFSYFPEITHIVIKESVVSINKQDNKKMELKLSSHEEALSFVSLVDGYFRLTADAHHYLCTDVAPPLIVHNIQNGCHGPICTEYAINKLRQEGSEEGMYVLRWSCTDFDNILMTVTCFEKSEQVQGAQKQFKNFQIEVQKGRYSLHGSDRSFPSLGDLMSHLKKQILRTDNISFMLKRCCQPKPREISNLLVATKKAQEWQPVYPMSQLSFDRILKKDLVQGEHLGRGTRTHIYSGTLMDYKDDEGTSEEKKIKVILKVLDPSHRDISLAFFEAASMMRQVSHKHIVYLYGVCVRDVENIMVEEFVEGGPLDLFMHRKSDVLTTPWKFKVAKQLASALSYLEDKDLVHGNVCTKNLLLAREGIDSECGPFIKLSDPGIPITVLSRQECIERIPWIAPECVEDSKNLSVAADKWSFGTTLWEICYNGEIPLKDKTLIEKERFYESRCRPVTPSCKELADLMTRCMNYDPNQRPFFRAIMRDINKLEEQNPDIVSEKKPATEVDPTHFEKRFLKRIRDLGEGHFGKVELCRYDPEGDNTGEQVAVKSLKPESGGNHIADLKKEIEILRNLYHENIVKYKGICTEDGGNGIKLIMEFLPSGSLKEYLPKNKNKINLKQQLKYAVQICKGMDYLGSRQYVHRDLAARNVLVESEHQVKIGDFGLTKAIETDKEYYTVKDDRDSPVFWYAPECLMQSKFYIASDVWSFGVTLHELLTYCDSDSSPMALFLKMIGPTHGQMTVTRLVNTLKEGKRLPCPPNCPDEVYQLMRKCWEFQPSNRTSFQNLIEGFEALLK
Method: as §1, §2

JAK2 = JAK2 (Homo sapiens, UniProt O60674); assay: experiment of inhibiting kinase activity (Caliper mobility shift assay), JAK2; conditions: for inhibition at 0.01 µM: at 10 nM; for inhibition at 0.01 µM / inhibition at 0.1 µM: read-out: inhibition rate JAK2; for inhibition at 0.1 µM: at 100 nM; for IC50: kinase activity assay, Table 3
Chain of JAK2 (O60674 whole entry): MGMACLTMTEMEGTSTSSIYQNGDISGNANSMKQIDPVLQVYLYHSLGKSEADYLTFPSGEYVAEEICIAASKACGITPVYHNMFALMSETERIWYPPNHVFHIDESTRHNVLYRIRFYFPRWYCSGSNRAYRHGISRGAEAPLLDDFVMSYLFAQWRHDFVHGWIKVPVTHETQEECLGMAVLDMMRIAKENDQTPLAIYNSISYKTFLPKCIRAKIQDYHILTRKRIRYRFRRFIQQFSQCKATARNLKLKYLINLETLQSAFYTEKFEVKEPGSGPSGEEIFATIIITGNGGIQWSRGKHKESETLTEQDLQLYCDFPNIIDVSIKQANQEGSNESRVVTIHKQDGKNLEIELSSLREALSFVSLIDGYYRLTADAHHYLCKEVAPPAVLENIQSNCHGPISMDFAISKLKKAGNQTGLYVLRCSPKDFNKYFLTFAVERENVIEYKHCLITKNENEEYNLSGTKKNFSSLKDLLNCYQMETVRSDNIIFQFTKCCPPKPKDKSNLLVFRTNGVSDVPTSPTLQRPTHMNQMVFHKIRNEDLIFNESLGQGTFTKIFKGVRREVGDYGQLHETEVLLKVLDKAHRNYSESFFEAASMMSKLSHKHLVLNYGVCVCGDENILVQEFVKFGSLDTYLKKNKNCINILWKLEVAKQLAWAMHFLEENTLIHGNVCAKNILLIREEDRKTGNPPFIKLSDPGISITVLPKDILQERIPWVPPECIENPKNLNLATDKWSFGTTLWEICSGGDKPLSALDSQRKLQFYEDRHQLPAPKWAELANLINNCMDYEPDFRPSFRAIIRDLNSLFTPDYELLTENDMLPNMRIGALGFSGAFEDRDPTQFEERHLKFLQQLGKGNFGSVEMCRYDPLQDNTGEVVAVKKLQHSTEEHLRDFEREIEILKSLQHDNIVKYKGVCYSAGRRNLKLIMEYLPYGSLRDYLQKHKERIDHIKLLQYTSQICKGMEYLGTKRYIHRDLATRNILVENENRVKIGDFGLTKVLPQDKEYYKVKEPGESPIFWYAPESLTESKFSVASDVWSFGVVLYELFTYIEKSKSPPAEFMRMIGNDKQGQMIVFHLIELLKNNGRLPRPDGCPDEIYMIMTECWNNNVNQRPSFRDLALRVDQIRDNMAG
Method: as §1, §2

JAK3 = target: T1, JAK3 (Homo sapiens, UniProt P52333); assay: experiment of inhibiting kinase activity (Caliper mobility shift assay), JAK3; conditions: for inhibition at 0.01 µM: at 10 nM; for inhibition at 0.01 µM / inhibition at 0.1 µM: read-out: inhibition rate JAK3; for inhibition at 0.1 µM: at 100 nM
T1 sequence (P52333 1-1124): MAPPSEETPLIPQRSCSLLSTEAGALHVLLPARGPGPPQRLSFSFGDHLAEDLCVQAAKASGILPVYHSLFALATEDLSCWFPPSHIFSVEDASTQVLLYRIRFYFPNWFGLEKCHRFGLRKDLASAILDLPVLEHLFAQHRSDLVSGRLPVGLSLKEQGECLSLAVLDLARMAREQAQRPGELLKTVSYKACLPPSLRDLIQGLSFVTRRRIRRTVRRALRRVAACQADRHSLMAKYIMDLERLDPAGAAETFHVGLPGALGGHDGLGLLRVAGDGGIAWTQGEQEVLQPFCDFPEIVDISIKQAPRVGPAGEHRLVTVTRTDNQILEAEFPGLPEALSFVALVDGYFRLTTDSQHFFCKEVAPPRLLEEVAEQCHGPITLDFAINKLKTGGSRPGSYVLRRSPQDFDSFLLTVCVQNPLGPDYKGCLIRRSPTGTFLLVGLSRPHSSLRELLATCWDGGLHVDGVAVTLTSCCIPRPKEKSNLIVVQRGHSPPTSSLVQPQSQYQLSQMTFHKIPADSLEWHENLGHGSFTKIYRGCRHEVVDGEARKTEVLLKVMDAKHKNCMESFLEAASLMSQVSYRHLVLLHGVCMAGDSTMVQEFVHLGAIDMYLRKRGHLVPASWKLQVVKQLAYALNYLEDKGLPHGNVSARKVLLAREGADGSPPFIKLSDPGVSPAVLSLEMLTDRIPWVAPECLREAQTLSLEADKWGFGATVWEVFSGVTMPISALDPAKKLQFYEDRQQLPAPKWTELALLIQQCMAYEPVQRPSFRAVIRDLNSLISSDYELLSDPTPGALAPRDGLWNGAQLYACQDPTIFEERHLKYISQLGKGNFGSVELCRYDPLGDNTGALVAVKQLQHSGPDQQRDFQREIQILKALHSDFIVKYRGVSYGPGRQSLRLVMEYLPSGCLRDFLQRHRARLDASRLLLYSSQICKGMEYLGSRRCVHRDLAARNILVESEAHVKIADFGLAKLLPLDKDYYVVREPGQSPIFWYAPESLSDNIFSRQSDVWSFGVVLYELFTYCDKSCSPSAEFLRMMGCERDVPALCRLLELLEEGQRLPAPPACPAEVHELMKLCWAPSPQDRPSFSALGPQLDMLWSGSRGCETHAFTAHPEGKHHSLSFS
Method: as §1, §2

TYK2 = TYK2 (Homo sapiens, UniProt P29597); assay: experiment of inhibiting kinase activity, TYK2; conditions: read-out: inhibition rate TYK2; for inhibition at 0.01 µM: at 10 nM; for inhibition at 0.1 µM: at 100 nM
Chain of TYK2 (P29597 whole entry): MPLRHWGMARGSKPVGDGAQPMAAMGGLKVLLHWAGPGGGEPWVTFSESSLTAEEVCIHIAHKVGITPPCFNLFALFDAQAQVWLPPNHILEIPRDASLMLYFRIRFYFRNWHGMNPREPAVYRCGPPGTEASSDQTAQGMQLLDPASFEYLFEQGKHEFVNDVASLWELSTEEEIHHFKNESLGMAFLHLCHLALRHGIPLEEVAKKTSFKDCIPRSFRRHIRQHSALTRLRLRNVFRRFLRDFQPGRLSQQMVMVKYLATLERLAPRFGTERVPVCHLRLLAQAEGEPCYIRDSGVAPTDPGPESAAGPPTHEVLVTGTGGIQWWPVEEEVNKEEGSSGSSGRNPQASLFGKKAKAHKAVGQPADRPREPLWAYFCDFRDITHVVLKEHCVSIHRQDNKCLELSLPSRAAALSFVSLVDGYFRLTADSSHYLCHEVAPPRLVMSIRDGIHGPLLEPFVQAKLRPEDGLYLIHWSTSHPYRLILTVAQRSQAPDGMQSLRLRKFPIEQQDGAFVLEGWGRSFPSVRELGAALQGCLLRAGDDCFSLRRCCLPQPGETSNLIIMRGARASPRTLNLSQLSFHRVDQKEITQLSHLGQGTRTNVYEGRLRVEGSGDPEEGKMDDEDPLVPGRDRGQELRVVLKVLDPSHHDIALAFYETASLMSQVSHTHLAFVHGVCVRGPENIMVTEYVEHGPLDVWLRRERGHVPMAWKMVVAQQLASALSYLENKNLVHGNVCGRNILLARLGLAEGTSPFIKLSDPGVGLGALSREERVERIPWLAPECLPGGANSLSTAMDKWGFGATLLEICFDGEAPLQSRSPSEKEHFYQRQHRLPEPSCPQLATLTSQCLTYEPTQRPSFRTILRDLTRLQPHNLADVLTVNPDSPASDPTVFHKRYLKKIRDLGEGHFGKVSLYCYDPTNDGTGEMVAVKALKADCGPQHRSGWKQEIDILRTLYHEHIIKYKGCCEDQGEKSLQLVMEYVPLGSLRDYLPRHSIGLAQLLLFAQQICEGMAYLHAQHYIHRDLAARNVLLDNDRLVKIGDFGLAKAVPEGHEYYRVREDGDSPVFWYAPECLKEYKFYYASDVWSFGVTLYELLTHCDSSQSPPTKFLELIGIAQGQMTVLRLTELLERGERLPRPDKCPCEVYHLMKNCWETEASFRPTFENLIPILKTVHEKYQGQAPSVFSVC
Method: as §1

LRRK2 = LRRK2 (Homo sapiens, UniProt Q5S007); assay: experiment of inhibiting kinase activity, LRRK2; conditions: for inhibition at 0.01 µM: at 10 nM; for inhibition at 0.01 µM / inhibition at 0.1 µM: read-out: inhibition rate LRRK2; for inhibition at 0.1 µM: at 100 nM; for IC50: kinase activity assay, Table 3
Method: as §1

Chain of CDK7 (P50613 whole entry, species assumed): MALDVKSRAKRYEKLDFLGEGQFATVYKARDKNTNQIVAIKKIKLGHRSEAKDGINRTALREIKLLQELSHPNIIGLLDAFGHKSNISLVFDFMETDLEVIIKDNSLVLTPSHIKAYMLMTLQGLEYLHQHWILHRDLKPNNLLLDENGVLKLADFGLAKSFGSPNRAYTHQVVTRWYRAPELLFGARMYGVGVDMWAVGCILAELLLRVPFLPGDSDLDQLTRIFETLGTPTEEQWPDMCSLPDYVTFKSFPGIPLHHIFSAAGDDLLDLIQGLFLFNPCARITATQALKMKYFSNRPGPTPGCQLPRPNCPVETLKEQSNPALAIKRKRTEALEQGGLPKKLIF
Chain of CDK7 (P51946 whole entry partner, species assumed): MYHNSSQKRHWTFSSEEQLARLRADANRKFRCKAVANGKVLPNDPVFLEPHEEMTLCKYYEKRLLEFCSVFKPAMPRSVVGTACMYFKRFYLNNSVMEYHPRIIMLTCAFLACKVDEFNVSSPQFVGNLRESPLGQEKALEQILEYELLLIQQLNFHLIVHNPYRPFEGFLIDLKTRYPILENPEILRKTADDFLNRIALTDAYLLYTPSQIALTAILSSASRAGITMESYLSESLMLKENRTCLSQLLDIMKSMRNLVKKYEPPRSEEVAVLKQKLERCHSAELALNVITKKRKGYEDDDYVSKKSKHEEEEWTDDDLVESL
Chain of CDK7 (P51948 whole entry partner, species assumed): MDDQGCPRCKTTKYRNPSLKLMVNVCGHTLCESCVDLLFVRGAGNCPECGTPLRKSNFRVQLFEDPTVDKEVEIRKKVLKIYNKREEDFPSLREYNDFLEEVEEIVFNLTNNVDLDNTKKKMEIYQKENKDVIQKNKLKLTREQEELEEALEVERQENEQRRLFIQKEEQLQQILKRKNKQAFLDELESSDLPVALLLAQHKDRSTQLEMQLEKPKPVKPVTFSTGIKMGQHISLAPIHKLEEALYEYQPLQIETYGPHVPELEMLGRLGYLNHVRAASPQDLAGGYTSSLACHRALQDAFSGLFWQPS

| Structure (SMILES) | inhibition at 0.01 µM (JAK1) [%] | inhibition at 0.01 µM (JAK2) [%] | inhibition at 0.01 µM (JAK3) [%] | inhibition at 0.01 µM (TYK2) [%] | inhibition at 0.01 µM (LRRK2) [%] | other results |
| --- | --- | --- | --- | --- | --- | --- |
| CN1CCOc2ccc(Nc3nc(-c4cn(C)c5ccccc45)c4cn[nH]c4n3)cc2OCC1 [Example 5, 4-methyl-N-(4-(1-methyl-1H-indol-3-yl)-1H-pyrazolo[3,4-d]pyrimidin-6-yl)-3,4,5,6-tetrahydro-2H-benzo[b][1,4,7]dioxazolin-9-amine] |  |  |  |  |  | inhibition at 0.1 µM (CDK7; at 100 nM): 25 to 39% |
| CN1CCOCCOc2cc(Nc3nc(-c4ccc(C(=O)NCC#N)cc4)c4cc[nH]c4n3)ccc2OCC1 [Example 17, N-(cyanomethyl)-4-(2-((7-methyl-2,3,6,7,8,9-hexahydro-5H-benzo[b][1,4,7]trioxa [10]azacyclododecan-13-yl)amino)-7H-pyrrolo[2,3-d]pyrimidin-4-yl)benzamide] | 40 to 79 | > 80 | 40 to 79 | 40 to 79 | 40 to 79 |  |
| CCS(=O)(=O)N1CC(CC#N)(n2cc(-c3nc(Nc4ccc5c(c4)OCCN(C)CCO5)nc4[nH]ncc34)cn2)C1 [Example 29, 2-(1-(ethylsulfonyl)-3-(4-(6-((4-methyl-3,4,5,6-tetrahydro-2H-benzo[b][1,4,7]dioxazolin-9-yl)amino)-1H-pyrazolo[3,4-d]pyrimidin-4-yl)-1H-pyrazol-1-yl)azetidin-3-yl) acetonitrile] |  |  |  |  |  | inhibition at 0.1 µM (JAK1): > 80%; IC50 (JAK1; kinase activity assay, Table 3): < 0.05 µM; inhibition at 0.1 µM (JAK2): > 80%; IC50 (JAK2): < 0.05 µM; IC50 (JAK3; kinase activity assay, Table 3): < 0.05 µM; inhibition at 0.1 µM (TYK2): > 80%; inhibition at 0.1 µM (LRRK2): 40 to 79%; IC50 (LRRK2): 0.05 to 0.2 µM |
| CN1CCOc2ccc(Nc3nc(-c4ccc(C(=O)NCC#N)cc4)c4cn[nH]c4n3)cc2OCC1 [Example 38, N-(cyanomethyl)-4-(6-((4-methyl-3,4,5,6-tetrahydro-2H-benzo[b][1,4,7]dioxazolin-9-yl)amino)-1H-pyrazolo[3,4-d]pyrimidin-4-yl)benzamide] |  |  |  |  |  | inhibition at 0.1 µM (JAK1): 40 to 79%; inhibition at 0.1 µM (JAK2): > 80%; IC50 (JAK2): < 0.05 µM; inhibition at 0.1 µM (JAK3): 25 to 39%; inhibition at 0.1 µM (TYK2): 40 to 79%; inhibition at 0.1 µM (LRRK2): 40 to 79%; IC50 (LRRK2): 0.05 to 0.2 µM |
| CN1CCOCCOc2ccc(Nc3ncc(F)c(Nc4cccc(S(=O)(=O)NC(C)(C)C)c4)n3)cc2OCC1 [Example 40, N-(tert-butyl)-3-((5-fluoro-2-((7-methyl-2,3,6,7,8,9-hexahydro-5H-benzo[b][1,4,7]trioxa[10]azacyclododecan-12-yl)amino)pyrimidin-4-yl)amino)benzenesulfonamide] |  | > 80 |  |  |  | inhibition at 0.1 µM (JAK1): 25 to 39%; inhibition at 0.1 µM (JAK2): > 80%; inhibition at 0.1 µM (JAK3): 25 to 39%; inhibition at 0.1 µM (TYK2): 40 to 79%; inhibition at 0.1 µM (LRRK2): 25 to 39% |
| CN1CCOCCOc2ccc(Nc3nc(-c4cnn(C(CC#N)C5CCCC5)c4)c4cc[nH]c4n3)cc2OCC1 (stereo not shown) [Example 48, 3-cyclopentyl-3-(4-(2-((7-methyl-2,3,6,7,8,9-hexahydro-5H-benzo[b][1,4,7]trioxa [10]azacyclododecan-12-yl)amino)-7H-pyrrolo[2,3-d]pyrimidin-4-yl)-1H-pyrazol-1-yl) propionitrile] | > 80 | > 80 | > 80 | > 80 | > 80 |  |
| CCS(=O)(=O)N1CC(CC#N)(n2cc(-c3nc(Nc4ccc5c(c4)OCCN(C)CCOCCO5)nc4[nH]ccc34)cn2)C1 [Example 49, 2-(1-(ethylsulfonyl)-3-(4-(2-((7-methyl-2,3,6,7,8,9-hexahydro-5H-benzo[b][1,4,7]trioxa[10]azacyclododecan-12-yl)amino)-7H-pyrrolo[2,3-d]pyrimidin-4-yl)-1H-pyrazol-1-yl)azetidin-3-yl)acetonitrile] | > 80 | > 80 | > 80 | > 80 | 40 to 79 |  |
| CN1CCOCCOc2ccc(Nc3nc(-c4ccc(C(=O)NCC#N)cc4)c4cc[nH]c4n3)cc2OCC1 [Example 51, N-(cyanomethyl)-4-(2-((7-methyl-2,3,6,7,8,9-hexahydro-5H-benzo[b][1,4,7]trioxa [10]azacyclododecan-12-yl)amino)-7H-pyrrolo[2,3-d]pyrimidin-4-yl)benzamide] | 40 to 79 | > 80 | 40 to 79 | 25 to 39 | 25 to 39 |  |
| CN1CCOCCOc2cc(Nc3nc(-c4cnn([C@H](CC#N)C5CCCC5)c4)c4cc[nH]c4n3)ccc2OCC1 [Example 74, (R)-3-cyclopentyl-3-(4-(2-((7-methyl-2,3,6,7,8,9-hexahydro-5H-benzo[b][1,4,7]trioxa[10]azacyclododecan-13-yl)amino)-7H-pyrrolo[2,3-d]pyrimidin-4-yl)-1H-pyrazol-1-yl) propionitrile] | 25 to 39 | > 80 | > 80 | > 80 | 40 to 79 |  |
| CN1CCOc2ccc(Nc3nc(-c4cnn([C@H](CC#N)C5CCCC5)c4)c4cc[nH]c4n3)cc2OCC1 [Example 76, (R)-3-cyclopentyl-3-(4-(2-((4-methyl-3,4,5,6-tetrahydro-2H-benzo[b][1,4,7]dioxazolin-9-yl)amino)-7H-pyrrolo[2,3-d]pyrimidin-4-yl)-1H-pyrazol-1-yl)propanenitrile] | 40 to 79 | > 80 | 40 to 79 | > 80 | 40 to 79 |  |
| CN1CCOc2ccc(Nc3nc(-c4cnn([C@@H](CC#N)C5CCCC5)c4)c4cc[nH]c4n3)cc2OCC1 [Example 77, (S)-3-cyclopentyl-3-(4-(2-((4-methyl-3,4,5,6-tetrahydro-2H-benzo[b][1,4,7]dioxazolin-9-yl)amino)-7H-pyrrolo[2,3-d]pyrimidin-4-yl)-1H-pyrazol-1-yl)propanenitrile] | > 80 | > 80 | > 80 | > 80 | > 80 |  |
| C=CC(=O)Nc1cc(C)ccc1Nc1nc(Nc2ccc3c(c2)OCCN(C)CCO3)ncc1C(F)(F)F [Example 112, N-(5-methyl-2-((2-((4-methyl-3,4,5,6-tetrahydro-2H-benzo[b][1,4,7]dioxazolin-9-yl)amino)-5-(trifluoromethyl)pyrimidin-4-yl)amino)phenyl)acrylamide] |  |  |  |  |  | inhibition at 0.01 µM (CDK7; at 10 nM): 40 to 79% |

— patent EP4592286A1, “MACROCYCLIC NITROGEN-CONTAINING CROWN ETHER COMPOUND AND USE THEREOF AS PROTEIN KINASE INHIBITOR” (Artivila Biopharma, priority 2022, dated 2024)
